Legend:
[1] = Hemodynamic monitoring (mean aortic/arterial pressure) during administration of AAV1/SERCA2a; assay type: in vivo, Göttingen Minipigs; settings: Groups 3 and 4 (nitroglycerin treated animals); maximum; except one time point in group 4
Experimental: (§1) Administration on Day 0 was via the direct coronary infusion procedure described below. Animals from Groups 1-3 were dosed with a total volume of 12 mL of AAV1/SERCA2a solution which was infused at a constant rate of 1.2 mL/minute over a 10 minute period. Animals from Groups 3 and 4 received nitroglycerin as a bolus intracoronary injection immediately prior to administration of AAV1/SERCA2a. Animals from Group 3 were dosed with a total volume of 12 mL of AAV1/SERCA2a and nitroglycerin solution, which was infused at a constant rate of 1.2 mL/minute over a 10 minute period. Animals from Group 4 were dosed with a total volume of 12 mL of normal saline, which was infused at a constant rate of 1.2 mL/minute over a 10 minute period. The direct infusion system is composed of standard (commercially available) components including a conventional guide sheath, 0.014″ guide-wire, a 5F infusion (guide) catheter and two programmable syringe pumps. The direct intracoronary infusion procedure began with introduction of the conventional guide sheath using a common carotid arterial or femoral arterial approach. The Coronary Infusion Catheter (e.g., Cordis Vista Brite Tip Guiding Catheter or similar model appropriate for cannulation of the left main coronary artery) was then placed in the left main coronary artery under fluoroscopic guidance. […]

SERCA2a mRNA = SERCA2a mRNA expression via RT-PCR in heart sections, 30 day single dose tissue distribution study; assay type: in vivo, Göttingen Minipigs; settings: nitroglycerin given with AAV1/SERCA2a; especially deep myocardial regions (septum, middle layer anterior wall)
Experimental: as §1, with “pumps.” for “pumps. The direct intracoronary infusion procedure began with introduction of the conventional guide sheath using a common carotid arterial or femoral arterial approach. The Coronary Infusion Catheter (e.g., Cordis Vista Brite Tip Guiding Catheter or similar model appropriate for cannulation of the left main coronary artery) was then placed in the left main coronary artery under fluoroscopic guidance.”
Total mRNA and protein expression in the left ventricle of individual sections was calculated (sum of sections 1-10 in FIG. 1), and the septum (section #5 in FIG. 1), and the middle layer anterior wall (section #6 in FIG. 1) were also analyzed separately, as these regions represent deep myocardium, furthest from the site of infusion. […]

O=[N+]([O-])OCC(CO[N+](=O)[O-])O[N+](=O)[O-] [nitroglycerin, glyceryl trinitrate]
decrease in Mean arterial pressure (MAP) compared to baseline [1]: ≤ 6 mm Hg | vector uptake (SERCA2a mRNA): enhanced
